# Experimental data: BindingDB's records for doi:10.1021/jm970211n (University of Michigan, 1997)
# Experiment: Inhibition of angiotensin I converting enzyme in silico
row,IC50,Compound
1,25.1 nM,CC(NP(=O)(O)CCc1ccccc1)C(=O)N1CCCC1C(=O)O (stereo unspecified) [1-hydroxy-1-phenylethyl-phosphinoylamino]-propionyl-pyrrolidine-2-carboxylic acid]
2,10 nM,CC(NC(=O)C1CCCCC1S)C(=O)N1CCCC1C(=O)O (stereo unspecified)
3,0.794 nM,C[C@H](NC(CCC(=O)Nc1ccc(I)cc1)C(=O)O)C(=O)N1CCC[C@H]1C(=O)O (stereo partly specified)
4,63.1 nM,O=C(S[C@@H]1CCC[C@@H]1C(=O)N1CCC[C@H]1C(=O)O)c1ccccc1

# Second part, the compound before the results:
row,Compound,IC50
1,CC1(CS)C(=O)N2CCCC(C(=O)O)N2C1=O (stereo unspecified),3160 nM
2,CC(NP(=O)(O)O)C(=O)C1CCCC1C(=O)O (stereo unspecified),5.01 nM
3,O=C(O)Cn1c(=O)n2n(c1=O)C(C(=O)O)C=CC2 (stereo unspecified),3.16 nM
4,O=C(O)CCc1cc(O)c2n(c1=O)[C@H](C(=O)O)CC2,31.6 nM
5,O=C(O)[C@@H]1CCCN1C(=O)[C@@H]1CC[C@H]1S,158 nM
6,O=C(O)[C@@H]1CC2(CN1C(=O)CP(=O)(O)CCCCc1ccccc1)SCCS2,12.6 nM
7,O=C(O)[C@@H]1C=CCn2c(=O)n(CS)c(=O)n21,2510 nM
